According to the supplement of paper PMC10307832:

What was measured:
Assay in all cases: relative viability (nuclei count vs DMSO), 5 days (fraction); higher = more cells survive
BI-2536 + Dasatinib = compound: CC[C@@H]1C(=O)N(C)c2cnc(Nc3ccc(C(=O)NC4CCN(C)CC4)cc3OC)nc2N1C1CCCC1 [BI-2536] + Cc1nc(Nc2ncc(C(=O)Nc3c(C)cccc3Cl)s2)cc(N2CCN(CCO)CC2)n1 [Dasatinib] (partner 0.075 µM)
Summary of the method: (§1)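 Lung cancer cell lines were pin-tool dosed in 1536-well plates on the day after seeding, with either a lone drug or a fixed anchor-drug dose plus five library-drug doses (not always all listed) in √10 steps. Nuclei were counted on 4× images after 5 days. Relative viability is the ratio of treated-well to vehicle-well nuclei counts, with each value a median of duplicate plates.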

BI-2536 + Navitoclax = compound: CC[C@@H]1C(=O)N(C)c2cnc(Nc3ccc(C(=O)NC4CCN(C)CC4)cc3OC)nc2N1C1CCCC1 [BI-2536] + CC1(C)CCC(c2ccc(Cl)cc2)=C(CN2CCN(c3ccc(C(=O)NS(=O)(=O)c4ccc(N[C@H](CCN5CCOCC5)CSc5ccccc5)c(S(=O)(=O)C(F)(F)F)c4)cc3)CC2)C1 [Navitoclax] (partner 0.5 µM)
Summary of the method: as §1

[1] = compound: CC1CC(=O)N(C2=CN=C(N=C2N1C3CCCC3)NC4=C(C=C(C=C4)C(=O)NC5CCN(CC5)C)OC)C [NPK76-II-72-1] + C[C@@H](Oc1cc(-c2cnn(C3CCNCC3)c2)cnc1N)c1c(Cl)ccc(F)c1Cl [Crizotinib] (partner 1 µM)
Summary of the method: as §1

BI-2536 + Luminespib = compound: CC[C@@H]1C(=O)N(C)c2cnc(Nc3ccc(C(=O)NC4CCN(C)CC4)cc3OC)nc2N1C1CCCC1 [BI-2536] + CCNC(=O)c1noc(-c2cc(C(C)C)c(O)cc2O)c1-c1ccc(CN2CCOCC2)cc1 [Luminespib] (partner 0.01 µM)
Summary of the method: as §1

Cell Line	relative viability (BI-2536 + Dasatinib; first compound 0.01 µM)	relative viability (BI-2536 + Dasatinib; first compound 0.03162 µM)	relative viability (BI-2536 + Dasatinib; first compound 0.1 µM)	relative viability (BI-2536 + Dasatinib; first compound 0.3162 µM)	relative viability (BI-2536 + Dasatinib; first compound 1 µM)	relative viability (BI-2536 + Navitoclax; first compound 0.01 µM)	relative viability (BI-2536 + Navitoclax; first compound 0.03162 µM)	relative viability (BI-2536 + Navitoclax; first compound 0.1 µM)	relative viability (BI-2536 + Navitoclax; first compound 0.3162 µM)	relative viability (BI-2536 + Navitoclax; first compound 1 µM)	relative viability ([1]; first compound 0.01 µM)	relative viability ([1]; first compound 0.03162 µM)	relative viability ([1]; first compound 0.1 µM)	relative viability ([1]; first compound 0.3162 µM)	relative viability ([1]; first compound 1 µM)	relative viability (BI-2536 + Luminespib; first compound 0.01 µM)	relative viability (BI-2536 + Luminespib; first compound 0.03162 µM)	relative viability (BI-2536 + Luminespib; first compound 0.1 µM)	relative viability (BI-2536 + Luminespib; first compound 0.3162 µM)	relative viability (BI-2536 + Luminespib; first compound 1 µM)
201T	0.579	0.57	0.547	0.402	0.285	1.18	1.16	1.21	0.939	0.33	1.01	1.01	1.02	1.01	1.01	1.02	0.999	1.05	0.349	0.318
A549						1.38	1.07	0.0366	0.0423	0.0248	0.704	0.798	0.775	0.803	0.8					
A-427	0.579	0.752	0.44	0.12	0.118	0.961	0.979	0.941	0.284	0.165	0.798	0.908	0.907	0.777	0.969	0.841	0.829	0.525	0.144	0.137
ABC-1	0.519	0.634	0.211	0.31	0.231						0.907	1.13	1.06	1.01	1.1	0.54	0.293		0.28	0.39
BEN	0.34	0.367	0.248	0.184	0.199	0.0623	0.0739	0.0643	0.0627	0.0546	0.89	1.07	0.908	0.77	0.893	0.486	0.611	0.282	0.158	0.217
CAL-12T	0.387	0.287	0.0978	0.121	0.0997	1.22	1.17	0.834	0.164	0.144	0.685	0.665	0.719	0.544	0.674	0.774	0.229	0.173	0.124	0.202
COR-L23	0.459	0.491	0.117	0.107	0.0593	0.883	0.792	0.358	0.0817	0.0706	0.73	0.715	0.738	0.619	0.647	0.668	0.705	0.171	0.106	0.122
COR-L 105	0.359	0.312	0.212	0.197	0.148	0.671	0.757	0.491	0.311	0.271	0.709	0.899	0.643	0.61	0.979	0.882	0.514	0.434	0.325	0.327
Calu-6						0.825	0.397	0.106	0.0854	0.0728	0.757	0.784	0.763	0.713	0.861					
ChaGo-K-1	0.594	0.667	0.446	0.194	0.197	0.939	0.691	0.461	0.311	0.346	1.11	1.18	1.11	1.12	1.19	0.691	0.615	0.529	0.16	0.178
EBC-1						0.327	0.28	0.171	0.173	0.159	0.178	0.21	0.19	0.214	0.184					
EKVX	0.742	0.653	0.586	0.399	0.174	0.786	0.874	1.02	0.15	0.114	0.787	1.16	0.936	0.832	0.922	0.911	0.955	0.8	0.292	0.123
EMC-BAC-2	0.3	0.304	0.209	0.15	0.14	1.27	1.24	1.21	0.17	0.134	0.765	0.817	0.658	0.783	0.823	1.22	1.19	1.08	0.251	0.22
EPLC-272H	0.327	0.357	0.0724	0.0766	0.0856	1.13	0.999		0.0617	0.0715	0.865	0.865	1.02	0.892	0.91	0.293	0.166	0.153	0.102	0.0894
H3255	0.315	0.237	0.235	0.27	0.25	0.292	0.359	0.196	0.113	0.119	0.855	0.887	0.819		1.16	0.846	1.13	0.691	0.239	0.359
HARA	0.265	0.287	0.328	0.058	0.0777	1.15	1.17	0.98	0.103	0.0669	0.993	1.2	1.03	1.01	1.24	0.784	1.46	0.148	0.0637	0.0578
HCC-15	0.557	0.417	0.192	0.112	0.102	0.709	0.693	0.497	0.202	0.101	0.773	0.874	0.846	0.756	0.834	0.265	0.339	0.144	0.116	0.134
HCC-44						0.956	1.02	0.849	0.0892	0.095	0.734	0.772	0.827	0.795	0.846	1.03	0.261	0.204	0.104	0.12
HCC-78	0.454	0.374	0.416	0.25	0.17	0.772	0.708	0.635	0.344	0.144		0.33	0.355		0.368					
HCC-366	0.717	0.653	0.149	0.0225	0.0238	1.1	1.1	0.809	0.0109	0.0154	0.458	0.683	0.694	0.429	0.59					

Cell Line	relative viability (BI-2536 + Dasatinib; first compound 0.01 µM)	relative viability (BI-2536 + Dasatinib; first compound 0.03162 µM)	relative viability (BI-2536 + Dasatinib; first compound 0.1 µM)	relative viability (BI-2536 + Dasatinib; first compound 0.3162 µM)	relative viability (BI-2536 + Dasatinib; first compound 1 µM)	relative viability (BI-2536 + Navitoclax; first compound 0.01 µM)	relative viability (BI-2536 + Navitoclax; first compound 0.03162 µM)	relative viability (BI-2536 + Navitoclax; first compound 0.1 µM)	relative viability (BI-2536 + Navitoclax; first compound 0.3162 µM)	relative viability (BI-2536 + Navitoclax; first compound 1 µM)	relative viability ([1]; first compound 0.01 µM)	relative viability ([1]; first compound 0.03162 µM)	relative viability ([1]; first compound 0.1 µM)	relative viability ([1]; first compound 0.3162 µM)	relative viability ([1]; first compound 1 µM)	relative viability (BI-2536 + Luminespib; first compound 0.01 µM)	relative viability (BI-2536 + Luminespib; first compound 0.03162 µM)	relative viability (BI-2536 + Luminespib; first compound 0.1 µM)	relative viability (BI-2536 + Luminespib; first compound 0.3162 µM)	relative viability (BI-2536 + Luminespib; first compound 1 µM)
HCC-827	0.293	0.315	0.334	0.301	0.177	1.06	1	0.99	0.23	0.186	1.01	0.912	0.902	0.895	0.892	0.801	0.35	0.401	0.203	0.138
HOP-62	0.618	0.665	0.515	0.173	0.167	1	1.08	0.967	0.0716	0.0536	0.85	0.907	0.75	0.896	0.982	0.949	0.84	0.419	0.121	0.188
IA-LM						0.753	0.559	0.0092	0.0147	0.0245	0.704	0.818	0.727	0.616	0.989					
LC-2-ad	0.563	0.333	0.135	0.197	0.147	0.412	0.405	0.113	0.108	0.103	0.449		0.453	0.44	0.51	0.897	0.319	0.325	0.289	0.375
LCLC-97TM1	0.943	0.837	0.725	0.155	0.12	0.567	0.564	0.246	0.121	0.142		0.414	0.438	0.259	0.354	0.785	0.641	0.504	0.14	0.175
LCLC-103H	0.405	0.467	0.413	0.147	0.089						0.919	0.962	1.04	0.916	1.18	0.95	1.05	0.842	0.188	0.184
LK-2	0.268	0.313	0.215	0.147	0.137	0.798	0.553	0.387	0.118	0.172	0.22	0.247	0.238		0.241	0.184	0.176	0.155	0.177	0.176
NCI-H358	0.157	0.171	0.0774	0.0602	0.0816						0.606	0.604	0.604	0.437	0.651	0.414	0.283	0.398	0.127	0.0998
NCI-H522	0.687	0.989	0.607	0.341	0.334											1.21	1.08	1.04	0.375	0.318
NCI-H650	0.44	0.511	0.3	0.158	0.0998						0.799	0.865	0.629		0.825	0.728	0.622	0.21	0.13	0.103
NCI-H661	0.851	0.307			0.367						0.873	0.937	0.982		0.995	0.944	0.936	0.347	0.296	0.257
NCI-H1299						1.08	1.1	1.05	0.315	0.254	0.921	0.911	0.984	0.932	0.919					
NCI-H1395	0.413	0.398	0.315	0.297	0.328	1.01	0.635	0.732	0.42	0.467						0.582	0.605	0.511	0.361	0.339
NCI-H1563	0.47	0.498	0.449	0.361	0.331						0.875	0.905	0.84	0.825	0.932	0.483	0.547	0.545	0.507	0.372
NCI-H1623	0.485	0.519	0.571	0.595	0.281											0.402	0.508	0.374	0.405	0.388
NCI-H1703						1.13	0.349	0.136	0.142	0.104	0.525	0.754	0.774	0.641	0.628					
NCI-H1793	0.401	0.356	0.129	0.113	0.163	0.438	0.34	0.275	0.218	0.159						0.201	0.167	0.137	0.168	0.14
NCI-H2342	0.326	0.313	0.267	0.213	0.227											0.883	0.661	0.676	0.38	0.369
SW 900	0.629	0.596	0.391	0.181	0.139											0.189	0.186	0.173	0.198	0.201
